{"source": "patent US9005917B2", "about": "“Variable color two-photon fluorescent probe, method for imaging thiol activation in mitochondrion using same, and method for manufacturing the variable color two-photon fluorescent probe” (Ajou University Industry-Academic Cooperation Foundation, priority 2011, dated 2015)", "key": {"[1]": {"test": "Measurement of water solubility by fluorescence intensity versus concentration", "format": "physicochemical", "conditions": "30 mM MOPS, 100 mM KCl, pH 7.4; 0.2% DMSO", "procedure": "A small amount of the two-photon fluorescent probe (SSH-Mito) prepared in Example 1 was dissolved in DMSO to prepare a stock solution (1.0×10^−2 M). The solution was diluted to 6.0×10^−3 to 6.0×10^−5 M and added to a cuvette containing 3.0 mL of a buffer (30 mM MOPS, 100 mM KCl, pH 7.4) using a microsyringe. In all cases, the concentration of DMSO in water was maintained at 0.2%. […] The maximum concentration in the linear region is determined as the solubility of the two-photon fluorescent probe."}, "thiols in HeLa cells": {"test_system": "thiols in HeLa cells", "test": "Ratiometric two-photon microscopy imaging of thiols in HeLa cells", "format": "cell-based", "procedure": "The images were acquired using 740 nm excitation and fluorescence emission windows of 425-475 nm (blue) and 525-575 nm (yellow). Scale bar: 20 μm. The cells shown are representative images obtained from repeated experiments (n=5).\nIt was tested if the two-photon fluorescent probe of the present invention can monitor the change of thiols in a living cell.\nWhen the cells were pre-incubated for 1 day with α-lipolic acid which increases GSH production (FIG. 6 (b)), the Fyellow/Fblue ratio increased to 2.64. And, when treated with N-ethylmaleimide (NEM), a well-known thiol blocking agent, the Fyellow/Fblue ratio decreased to 0.77 (FIG. 6 (c))."}, "[2]": {"test": "Thiol selectivity and pH dependence of fluorescence response in MOPS buffer", "procedure": "White and black bars represent the relative fluorescence intensity (Fyellow/Fblue) of SSH-Mito (5 μM) in the presence of various analytes before and after addition of GSH, respectively. Each spectrum was acquired 2 hours after addition of various analytes at 37° C.\nThe excitation wavelength was 380 nm.\nWhite and black bars represent the relative fluorescence intensity before and after addition of GSH, respectively."}, "[3]": {"test_system": "thiols in rat hippocampal slices", "test": "Ratiometric two-photon microscopy imaging of rat hippocampal slices", "procedure": "(a, d) Bright-field images of the CA1 and CA3 regions. (b, e) Ratiometric TPM images of rat hippocampal slices that were (b) not treated and (e) pretreated with NEM (100 μM) for 30 minutes before labeling with SSH-Mito. Ten TPM images were accumulated along the z-axis direction at depths of about 90-190 μm (10×). (c, f) Enlarged (40×) images of the red boxes in (b) and (e) at a depth of 120 μm. The two-photon excited fluorescence (TPEF) was collected in two channels (blue=425-475 nm, yellow=525-575 nm) upon excitation at 740 nm with a femtosecond (fs) pulse. Scale bars: 300 μm (a, d) and 75 μm (c, f)).\nIn order to investigate the utility of two-photon fluorescent probe of the present invention in tissue imaging, rat hippocampal slices were monitored.\nSince the structure of the brain tissue is known to be inhomogeneous throughout its entire depth, 10 TPM images were obtained at depths of 90-190 μm and they were combined to visualize the overall thiol distribution. […] When the tissue was treated with 100 μM NEM for 30 minutes, the ratio decreased to 0.85 (FIG. 8 (f))."}, "[4]": {"test": "Emission ratio change (Rmax/Rmin) before and after addition of GSH", "conditions": "before and 2 hours after addition of 10 mM GSH", "procedure": "(§1) Photophysical properties of the two-photon fluorescent probe (SSH-Mito) (Example 1) and the compound represented by Formula 6 were measured in MOPS buffer (30 mM MOPS, 100 mM KCl, pH 7.4)."}, "HeLa cells": {"test_system": "HeLa cells", "test": "Cytotoxicity, viability by CCK-8 kit", "format": "cell-based", "conditions": "incubated 2 hours", "procedure": "The cells were incubated with SSH-Mito for 2 hours."}, "[5]": {"test": "Measurement of photophysical properties in MOPS buffer", "format": "physicochemical", "conditions": "for λ(1)max, λmax of one-photon absorption spectra: MOPS buffer (30 mM MOPS, 100 mM KCl, pH 7.4); for Φδ, two-photon action cross section / λ(2)max, λmax of two-photon excitation spectra / λfl max, λmax of one-photon emission spectra / 10^−4 ε, molar extinction coefficient (in parentheses) / Φ, fluorescence quantum yield / δ, peak two-photon cross section per photon: MOPS buffer pH 7.4; for 10^−4 ε, molar extinction coefficient (in parentheses): printed as 10^−4 ε; for Φ, fluorescence quantum yield / δ, peak two-photon cross section per photon: ±15%", "procedure": "as §1"}}}
{"smiles": "CN(C(=O)OCCSSCCN)c1ccc2cc(-c3nc4ccc(C(=O)NCC[P+](c5ccccc5)(c5ccccc5)c5ccccc5)cc4s3)ccc2c1", "note": "[SSH-Mito]", "values": [{"measurement": "solubility in the buffer", "setting": "[1]", "result": "~5.0", "unit": "µM"}, {"measurement": "Fyellow/Fblue ratio", "setting": "thiols in HeLa cells; HeLa cells pre-incubated for 1 day with α-lipolic acid", "result": 2.64}, {"measurement": "Fyellow/Fblue ratio", "setting": "thiols in HeLa cells; HeLa cells treated with N-ethylmaleimide (NEM)", "result": 0.77}, {"measurement": "average emission ratio (Fyellow/Fblue)", "setting": "thiols in HeLa cells; HeLa cells, TP excitation at 740 nm, no pretreatment", "result": 1.24}, {"measurement": "selectivity for GSH over other analytes", "setting": "[2]; 5 μM probe, 10 mM analytes, 30 mM MOPS buffer pH 7.4", "result": "high selectivity for GSH"}, {"measurement": "fluorescence response toward compounds containing thiol groups", "setting": "[2]; GSH, Cys, Hcy, DTT, 2-ME, 2-AET", "result": "strong responses"}, {"measurement": "effect of pH on fluorescence", "setting": "[2]; absence and presence of 10 mM GSH, MOPS buffer", "result": "pH-insensitive at biologically relevant pH"}, {"measurement": "fluorescence response toward analytes without thiol groups", "setting": "[2]; amino acids (Glu, Ser, Val, Met, Ala, Ile), metal ions (Na+, K+, Ca+, Mg2+, Zn2+) and H2O2", "result": "negligible responses"}, {"measurement": "average emission ratio", "setting": "[3]; CA1 region, depth of 120 μm, not treated", "result": 1.66}, {"measurement": "average emission ratio", "setting": "[3]; tissue treated with 100 μM NEM for 30 minutes", "result": 0.85}, {"measurement": "Rmax/Rmin, emission ratio (F525-575/F425-475) conversion factor, one-photon processes", "setting": "[4]; one-photon", "result": 45}, {"measurement": "Rmax/Rmin, emission ratio conversion factor, two-photon processes (in parentheses)", "setting": "[4]; two-photon", "result": 40}, {"measurement": "viability of HeLa cells (cytotoxicity)", "setting": "HeLa cells", "result": "adequate for detecting thiols in living cells"}, {"measurement": "λ(1)max, λmax of one-photon absorption spectra", "setting": "[5]", "result": 338, "unit": "nm"}, {"measurement": "Φδ, two-photon action cross section", "setting": "[5]", "result": 80}, {"measurement": "λ(2)max, λmax of two-photon excitation spectra", "setting": "[5]", "result": 740, "unit": "nm"}, {"measurement": "λfl max, λmax of one-photon emission spectra", "setting": "[5]", "result": 462, "unit": "nm"}, {"measurement": "10^−4 ε, molar extinction coefficient (in parentheses)", "setting": "[5]", "result": 2.05, "unit": "M^−1 cm^−1"}, {"measurement": "Φ, fluorescence quantum yield", "setting": "[5]", "result": 0.82}, {"measurement": "δ, peak two-photon cross section per photon", "setting": "[5]", "result": 95, "unit": "GM"}]}
{"smiles": "CNc1ccc2cc(-c3nc4ccc(C(=O)NCC[P+](c5ccccc5)(c5ccccc5)c5ccccc5)cc4s3)ccc2c1.[Br-]", "note": "[Compound No. 6]", "values": [{"measurement": "λ(1)max, λmax of one-photon absorption spectra", "setting": "[5]", "result": 383, "unit": "nm"}, {"measurement": "Φδ, two-photon action cross section", "setting": "[5]", "result": 55}, {"measurement": "λ(2)max, λmax of two-photon excitation spectra", "setting": "[5]", "result": 750, "unit": "nm"}, {"measurement": "λfl max, λmax of one-photon emission spectra", "setting": "[5]", "result": 545, "unit": "nm"}, {"measurement": "10^−4 ε, molar extinction coefficient (in parentheses)", "setting": "[5]", "result": 1.50, "unit": "M^−1 cm^−1"}, {"measurement": "Φ, fluorescence quantum yield", "setting": "[5]", "result": 0.12}, {"measurement": "δ, peak two-photon cross section per photon", "setting": "[5]", "result": 550, "unit": "GM"}]}
